In one assay the test system is NF-κB. The assay can be described thus: Promoting effect on NF-κB promoter-dependent transcriptional activity (luciferase reporter). It is filed as cell-based, human. The settings on record: BGERKB5 cells (Namalwa KJM-1 with pIF-luc), 5 hours incubation; FIGS. 2 and 3. On the procedure: For the purpose of constructing an evaluation system for determination of NF-κB activity, the following stable transformant cell line was used. NF-κB luciferase reporter plasmid pIF-luc (containing a hygromycin resistant gene expression unit) introduced into cells was prepared by the method described in Japanese Published Unexamined Patent Application No. 169479/00. The plasmid was introduced into a human B-cell line, Namalwa (KJM-1) [Cytotechnology, Vol. 1, p. 151 (1988)], followed by culturing with addition of 0.3 mg/mL hygromycin B to select hygromycin-resistant cells. Among the selected hygromycin-resistant cells, a cell line with which enhancement of luciferase activity by TNF-α (10 ng/mL) stimulation was confirmed (hereinafter referred to as BGERKB5 cells) was used in the following test.
The BGERKB5 cells were suspended in RPMI1640·ITPSG medium having the following composition at a concentration of 1×10^6 cells/mL (hereinafter referred to as the BGERKB5 cell suspension). A test compound was dissolved in phosphate buffer (pH 5) and diluted to a desired concentration with RPMI1640·ITPSG medium to prepare an aqueous solution.
To RPMI1640 medium (Nissui Pharmaceutical Co., Ltd.) were added the following substances at the following concentration or ratio based on the medium (the resulting medium is hereinafter referred to as RPMI1640·ITPSG medium).

Another assay concerns IP-10. Conditions: BGERKB5 cells, 50 nmol/L, 48 hours, culture supernatant. How it is done:
Enzyme-linked immunosorbent assay (ELISA) of IP-10 can be carried out in the following manner.
As a control test, a control group without addition of a test compound was also prepared.
Measurement of the amount of IP-10 produced by the BGERKB5 cells was carried out using an immunoassay kit (BioSource International, Inc.). A calibration curve was prepared using the preparation attached to the kit, and the amount of IP-10 in the culture supernatant was measured.

For another assay, the target named is TLR9 (Homo sapiens, UniProt Q9NR96). The settings on record: BGERKB5 cells without siRNA (Mock), 50 nmol/L, 5 hours.
For a further assay, the system named is interleukin 12B (IL12B). Conditions: Mock cells, 50 nmol/L, 5 hours; corrected with GAPDH, ratio to solvent control (=1). How it is done: (§1) The remaining portion (2.6 mL) of each of the cell suspensions of the four groups used in Test Example 4 was incubated in a 15-mL sterile tube for 5 hours. The cells were collected, and the expression levels of genes of glyceraldehyde-3-phosphoate dehydrogenase (GAPDH), luciferase (NF-κB promoter-derived) (NF-κB-LUC), interleukin 12B (IL12B) and CD80 antigen (CD80) were measured by the quantitative RT-PCR method using SYBR-Green [see Bio Techniques, Vol. 22, p. 130-131, p. 134-138 (1997)].
(§2) That is, the cell suspension of each group remaining in the above test was subjected to the following procedure.
(§3) The cell suspension (1×10^6 cells/mL) of each group (2.6 mL: total cell number 2.6×10^6 cells) was centrifuged using himac CF702 centrifuge (Hitachi Koki Co., Ltd.) at 4° C. at 800 rpm for 10 minutes, and after the supernatant was removed using Pipetman, PBS (2 mL) was added. The obtained cell suspension was further centrifuged using himac CF702 centrifuge (Hitachi Koki Co., Ltd.) at 4° C. at 800 rpm for 10 minutes, and the supernatant was removed using Pipetman to obtain cells.
(§4) Total RNA was extracted from the obtained cells using RNeasy Mini Kit (registered trademark: Qiagen, Inc.) according to the manual attached to the kit. By using the obtained total RNA as a template, cDNA was synthesized in the following manner using Super Script First-strand Synthesis System for RT-PCR (Invitrogen Corp.) according to the manual attached to the kit.
(§5) Ten mmol/L dNTPs mixture solution (1.0 μL) and 0.5 μg/μL oligo(dT)12-18 primer (1.0 μL) were added to the […] (5 μg), and the mixture was diluted with an aqueous solution of diethyl pyrocarbonate (DEPC) to make a total volume of 10.0 μL. The obtained solution was heated at 65° C. for 5 minutes, then rapidly cooled on ice, and allowed to stand for more than one minute for denaturation.

For assay [1], the system named is glyceraldehyde-3-phosphate dehydrogenase (GAPDH). The settings on record: Mock cells, 50 nmol/L, 5 hours; GAPDH is the internal standard regarded as 1; solvent control = 1. On the procedure: as §1, §2, §3, §4, §5
A further assay concerns CD80 antigen (CD80). Conditions: Mock cells, 50 nmol/L, 5 hours; corrected with GAPDH, ratio to solvent control (=1). How it is done:
as §1, §2, §3, §4, §5

Assay [2] has as its system luciferase (NF-κB promoter-derived) (NF-κB-LUC). Conditions: Mock cells, 50 nmol/L, 5 hours; corrected with GAPDH, ratio to solvent control (=1). On the procedure: as §1, §2, §3, §4, §5
Another assay concerns CD40. Conditions: BGERKB5 cells, 50 nmol/L, 12 hours. How it is done:
(§6) Flow cytometry analysis of CD40, CD80, CD86, etc., which are co-stimulating molecules important for the activation of lymphocytes, can be carried out in the following manner.
(§7) The BGERKB5 cell suspension having a concentration of 1.1×10^6 cells/mL obtained in Test Example 1 (90 μL) was put into wells of a 96-well plate containing an aqueous solution of a test compound prepared according to the method described in Test Example 1 (10 μL) (final concentration: 50 nmol/L), followed by incubation in a CO2 incubator at 37° C. for 12 hours (test compound group). As a control test, a control group without addition of a test compound was also prepared.
(§8) The following experiments were carried out at a temperature not more than 4° C. The cells were washed twice with 200 μL of phosphate buffer (PBS) containing 1% bovine serum albumin (Fraction V, Sigma) and 0.05% sodium azide, followed by replacement with the same buffer (100 μL). A phycoerythrin-labeled mouse anti-human CD40 monoclonal antibody solution (BD Biosciences), a phycoerythrin-labeled mouse anti-human CD80 monoclonal antibody solution (BD Biosciences) or a phycoerythrin-labeled mouse anti-human CD86 monoclonal antibody solution (BD Biosciences) (2 μL) was added to the cells, and after stirring, the cells were allowed to stand in the dark for 50 minutes.
(§9) The cells were washed twice with 200 μL of phosphate buffer (PBS) containing 1% bovine serum albumin (Fraction V, Sigma) and 0.05% sodium azide, followed by replacement with the same buffer (500 μL).
(§10) The cell count was determined using EPICS XL-MCL (Beckman Coulter, Inc., excitation wavelength 488 nm, argon laser) as a flow cytometer and a positive cell ratio was calculated. As a measurement software, System 2 version 3.0 (Beckman Coulter, Inc.) was used.

Another assay has as its system CD80. The settings on record: BGERKB5 cells, 50 nmol/L, 12 hours. On the procedure: as §6, §7, §8, §9, §10
A further assay deals with CD86. The settings on record: BGERKB5 cells, 50 nmol/L, 12 hours. On the procedure:
as §6, §7, §8, §9, §10

Chain of TLR9 (Q9NR96 26-1032): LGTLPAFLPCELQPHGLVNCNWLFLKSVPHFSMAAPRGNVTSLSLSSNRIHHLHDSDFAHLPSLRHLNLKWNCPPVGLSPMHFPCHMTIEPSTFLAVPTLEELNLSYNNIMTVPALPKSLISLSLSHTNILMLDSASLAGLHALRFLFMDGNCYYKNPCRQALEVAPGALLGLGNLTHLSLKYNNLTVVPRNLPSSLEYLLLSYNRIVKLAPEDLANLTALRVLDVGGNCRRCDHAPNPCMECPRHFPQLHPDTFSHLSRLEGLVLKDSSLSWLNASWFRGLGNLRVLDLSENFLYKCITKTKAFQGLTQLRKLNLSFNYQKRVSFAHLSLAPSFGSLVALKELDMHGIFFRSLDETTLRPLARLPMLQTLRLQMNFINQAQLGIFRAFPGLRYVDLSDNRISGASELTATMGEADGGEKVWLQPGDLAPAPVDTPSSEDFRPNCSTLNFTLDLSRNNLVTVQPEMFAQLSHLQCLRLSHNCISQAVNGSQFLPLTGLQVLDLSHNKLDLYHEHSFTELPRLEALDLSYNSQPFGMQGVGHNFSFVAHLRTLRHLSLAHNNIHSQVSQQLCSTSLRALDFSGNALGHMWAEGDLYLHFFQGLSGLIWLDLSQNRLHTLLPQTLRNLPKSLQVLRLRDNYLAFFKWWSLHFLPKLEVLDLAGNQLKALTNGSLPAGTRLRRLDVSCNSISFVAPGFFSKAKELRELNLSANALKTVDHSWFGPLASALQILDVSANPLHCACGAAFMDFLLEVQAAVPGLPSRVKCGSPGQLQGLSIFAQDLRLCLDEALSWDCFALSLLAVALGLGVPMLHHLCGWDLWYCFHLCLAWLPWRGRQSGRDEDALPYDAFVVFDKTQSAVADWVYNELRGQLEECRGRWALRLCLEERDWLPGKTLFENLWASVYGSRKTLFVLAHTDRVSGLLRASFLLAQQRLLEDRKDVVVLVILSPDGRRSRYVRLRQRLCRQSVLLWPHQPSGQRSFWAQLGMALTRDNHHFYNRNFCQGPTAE
Description for TLR9: A knockdown test of TLR9 using siRNA in BGERKB5 cells can be carried out in the following manner.
A BGERKB5 cell suspension (0.5 mL) having a concentration of 4×10^5 cells/mL obtained according to the method described in Test Example 1 was seeded into 6 wells of a 24-well plate (total cell number: 1.2×10^6 cells), followed by incubation in a CO2 incubator at 37° C. for 24 hours.
Then, siRNA against TLR9 (Ambion, Inc., pre-designed siRNA, ID#6055, Cat. 16704, Lot. 047951si) was introduced in an amount of 100 pmol per well using lipofectamine 2000 (Invitrogen Corp.).
Twenty-four hours after the siRNA introduction, the medium was replaced with a fresh one, followed by further incubation for 48 hours. The obtained cells were collected in a sterile tube and suspended in RPMI1640·ITPSG medium at a concentration of 1×10^6 cells/mL (TLR9 kd group). “Mock group” containing no siRNA was prepared in the same manner as in the preparation of “TLR9 kd group”. […]
A 400-μL portion from each of the cell suspensions of the four groups (3 mL) was seeded in quadruplicate 100 μL aliquots into a 96-well plate, followed by incubation for 5 hours. Steady-Glo (Promega Corp.) (100 μL) was added and the luciferase activity (RLU) in each well was measured using Multilabel Counter ARVO (Perkin-Elmer Corp.).

Take `CC(=O)OCCC1OC(OP(=O)(O)OP(=O)(O)OCC2OC(n3cnc4c(N)ncnc43)C(O)C2O)C(OC(C)=O)C(OC(C)=O)C1OC(C)=O` [Compound 1, Adenosine=5′-(2,3,4,7-tetra-O-acetyl-6-deoxy-β-D-mannoheptopyranosyl)diphosphate]: in the assay on NF-κB, the “luciferase activity (RLU), activating effect on NF-κB” value (shortened to “luciferase activity (RLU) … on NF-κB”) is listed as “enhancement of luciferase activity was confirmed”.

As to `Nc1ncnc2c1ncn2C1OC(COP(=O)(O)OP(=O)(O)OC2OC(CCO)C(O)C(O)C2O)C(O)C1O` [Compound 2, Adenosine=5′-(6-deoxy-β-D-mannoheptopyranosyl)diphosphate], the “luciferase activity (RLU) … on NF-κB” value with NF-κB was “enhancement of luciferase activity was confirmed”.

Regarding `CC(=O)OCC(OC(C)=O)C1OC(OP(=O)(O)OP(=O)(O)OCC2OC(n3cnc4c(N)ncnc43)C(O)C2O)C(OC(C)=O)C(OC(C)=O)C1OC(C)=O` [Compound 10, Adenosine=5′-(2,3,4,6,7-penta-O-acetyl-L-glycero-β-D-mannoheptopyranosyl)diphosphate], the “luciferase activity (RLU) … on NF-κB” value in the assay with NF-κB is on record as “enhancement of luciferase activity was confirmed”.

On to `Nc1ncnc2c1ncn2[C@@H]1O[C@H](COP(=O)(O)OP(=O)(O)O[C@@H]2OC([C@@H](O)CO)[C@@H](O)C(O)C2O)C(O)C1O` (stereo partly drawn) [Compound 12, Adenosine=5′-(L-glycero-β-D-mannopyranosyl)diphosphate], for which the “luciferase activity (RLU) … on NF-κB” value with NF-κB is given as “enhancement of luciferase activity was confirmed”.

`CC(=O)OC[C@@H](OC(C)=O)[C@H]1O[C@@H](OP(=O)(O)OP(=O)(O)OC[C@H]2O[C@@H](n3cnc4c(N)ncnc43)[C@H](O)[C@@H]2O)[C@@H](OC(C)=O)[C@@H](OC(C)=O)[C@@H]1OC(C)=O` [Compound 14, Adenosine=5′-(2,3,4,6,7-penta-O-acetyl-D-glycero-β-D-mannoheptopyranosyl)diphosphate]: the “luciferase activity (RLU) … on NF-κB” value in the assay on NF-κB is “enhancement of luciferase activity was confirmed”.

As for `Nc1ncnc2c1ncn2[C@@H]1O[C@H](COP(=O)(O)OP(=O)(O)O[C@@H]2O[C@H]([C@H](O)CO)[C@@H](O)[C@H](O)[C@@H]2O)[C@@H](O)[C@H]1O` [Compound 16, Adenosine=5′-(D-glycero-β-D-mannoheptopyranosyl)diphosphate], the “amount of IP-10 produced” value in the assay with IP-10 is 1441 pg/mL. Moreover, the “Luciferase activity (RLU) (mean ± standard error), Mock” value on TLR9 is listed as 7196.7 ± 88.8 RLU. In addition, the “relative mRNA expression level, IL12B, Mock” value with interleukin 12B (IL12B) is recorded as 1.4. The “relative mRNA expression level, GAPDH, Mock” value in assay [1] was determined as 1.0. In addition, the “relative mRNA expression level, CD80, Mock” value with CD80 antigen (CD80) turned out to be 127. The “relative mRNA expression level, NF-κB-LUC, Mock” value in assay [2] is on record as 59.7. For the same compound, the “Positive cell ratio (%) CD40” value with CD40 was determined as 93.6%. In the assay on CD80, the “Positive cell ratio (%) CD80” value worked out at 45.7%. For the same compound, the “Positive cell ratio (%) CD86” value in the assay on CD86 is listed as 78.4%. For the same compound, in the assay on NF-κB, the “luciferase activity (RLU) … on NF-κB” value was “enhancement of luciferase activity was confirmed”.

On to “Adenosine=5′-(6-deoxy-β-D-mannoheptopyranosyl)-α, β-methylene diphosphate [Compound 30]”, for which the “amount of IP-10 produced” value with IP-10 came out at 821 pg/mL. In the assay on NF-κB, the “luciferase activity (RLU) … on NF-κB” value is listed as “enhancement of luciferase activity was confirmed”.

(Values after patent publication US20100016250A1, “TOLL-LIKE RECEPTOR 9 AGONISTS” (KYOWA HAKKO KIRIN CO., LTD., priority 2006, published 2010).)
